We go through 6 compounds from patent US6492360B1, “Phthalazine derivatives phosphodiesterase 4 inhibitors” (Zambon Group S.p.A., priority 1998, dated 2002).

In general, IC50 refers to the concentration that gives 50% inhibition. The inhibition is the change of the read-out against control, counted positive when it falls.

For test [1], the system named is TNFα release from human monocytes. Nature of the test: TNFα release inhibition in LPS-stimulated monocytes. In kind it is cell-based. The conditions noted are these: Monocyte, LPS 1 ng/ml, 16 hours, ELISA. Here is the method:
a) Human Monocyte Isolation
The monocytes were isolated from peripheral blood of healthy volunteers according to the procedure of Schreek L. et al. (J. Natl. Cancer Inst., 1964, 32, 507). The monocyte and lymphocyte population was isolated by Ficoll gradient centrifugation, and the cells diluted at a density of 2.5×10^6 cells/ml in RPMI1640 incubation medium containing 1% heat-inactivated foetal calf serum, penicillin (100 U/ml) and streptomycin (100 μg/ml) were plated in 24-wells plates (1 ml/well) and left to adhere for 1 hour at 37° C. with 5% CO2. Non-adherent lymphocytes were removed by aspiration and the monocytes adhered to the plate were used in the next step.
The TNFα release from human monocytes was measured according to the method of Barnette M. et al. (Biochemical Pharmacology, 1996, 51, 949). The monocytes were incubated for 1 hour with 1 ml of RPMI1640 incubation medium (1% beat-inactivated foetal calf serum, 100 U/ml penicillin and 100 μg/ml streptomyc in) containing different concentrations of the products according to the present invention or the vehicle for the controls. The TNFα release from monocytes was induced by adding 1 ng/ml of LPS (lipopolysaccharide from E. Coli) and after 16 hours of incubation at 37° C., 5% CO2, the incubation medium was removed, centrifuged and the supernatant stored at −80° C. until TNFα assay by ELISA kit (Amersham). The results are expressed as IC50 following the same calculation explained in example 147.

Another test concerns the target T1, PDE 3 (Homo sapiens, UniProt Q14432).
T1 construct: The fractions containing the enzymatic activities (PDE 3 or PDE 5) were pooled; from tissue; host or cells: human platelets from platelet rich plasma of healthy volunteers
The test can be described thus: PDE 3 enzyme inhibition (SPA). Format: biochemical. The conditions noted are these: 10^−6 M; PDE 3 from human platelets; cAMP. Here is the method:
(§1) a) Human Platelet Preparation
(§2) Human platelets were prepared from platelet rich plasma (PRP) obtained from healthy volunteers. The PRP was centrifuiged at 2,200 rpm for 15 minutes at 4° C. and the pellet was suspended in lysis solution (15 ml; 155 mM NH4Cl, 10 mM KHCO3 and 0.1 mM Na2EDTA, pH=7.4) and incubated for 10 minutes on ice-bath to remove the erythrocyte contamination. After centrifugation at 1,400 rpm for 10 minutes at 4° C., platelets were suspended in 10 ml of […], 5 mM KCl, 1 mM MgSO4, 10 mM glucose, 10 mM HEPES (pH 7.4) and 0.05 U/ml of hirudin, and stored at −20° C. until homogenisation. Platelets were thawed and 50 ml of 20 mM TRIS (pH=6.5) containing 5 mM β-mercapto-ethanol, 2 mM EDTA, 50 mM sodium acetate and 50 μM PMSF (homogenisation buffer) were added. The platelet suspension was then homogenised by a Polytron homogeniser (Polytron PT 1200) for 20 seconds. The homogenate was centrifuged at 14,500 rpm for 20 minutes at 4° C., and the supernatant was applied to an UNO Q12 column (Bio-Rad). The PDE 3 and PDE 5 were eluted by sodium acetate linear gradient from 0.05M to 1M using a flow rate of 4.5 ml/minutes. The fractions containing the enzymatic activities (PDE 3 or PDE 5) were pooled, dialysed against water and concentrated 10 times by ultrafiltration. The PDE 3 and PDE 5 fractions were stored at −20° C. in the presence of ethylene glycol (30% v/v) until use.
(§3) b) PDE 3 and PDE 5 Activity Assay
(§4) The enzyme activity was evaluated with a Scintillation Proximity Assay (SPA) kit (Amersham). The enzymatic reaction was performed in a final volume of 100 μl of TRIS/HCl buffer (50 mM, pH7.5), MgCl2 (8.3 mM), EGTA (1.7 mM), cAMP (for PDE 3 assay) or cGMP (for PDE 5 assay) (1 μM), [^3H]cAMP or [^3H]cGMP (10 μl ), and 10 μl of the compounds of the invention or vehicle. The reaction was started by adding the enzyme (1.0 μg) and incubated for 40 minutes at 30° C. SPA beads (50 μl) containing 18 mM zinc sulphate were added to stop the reaction and after 20 minutes at room temperature the radioacticity was measured using a scintillation counter.
(§5) The compounds were tested at 10^−6M and the results are expressed as percent of inhibition.

Another test concerns the target T2, PDE 5 (Homo sapiens, UniProt O76074).
T2 construct: The fractions containing the enzymatic activities (PDE 3 or PDE 5) were pooled; from tissue; host or cells: human platelets from platelet rich plasma of healthy volunteers
The test can be described thus: PDE 5 enzyme inhibition (SPA). To be noted: 10^−6 M; PDE 5 from human platelets; cGMP. Format: biochemical. As for the experimental part: as §1, §2, §3, §4, §5

Another test concerns the target PDE 4. Nature of the test: PDE 4 enzyme inhibition (SPA). In kind it is biochemical. The conditions noted are these: PDE 4 purified from human PMNs; cAMP 1 μM. As for the experimental part: a) Human Polymorphonuclear Leukocyte Isolation
The polymorphonuclear leukocytes (PMNs) were isolated from peripheral blood of healthy volunteers according to Boyum A. (Scand. J. Immunol., 1976, 5th suppl., 9). Briefly, the PMNs were purified by Ficoll-Paque gradient centrifugation followed by sedimentation on dextran and the erythrocyte contamination was eliminated by hypotonic lysis.
b) PDE 4 Enzyme Purification
The human PMNs were suspended in TRIS/HCl buffer (10 mM, pH 7.8) containing MgCl2 (5 mM), EGTA (4 mM), mercaptoethanol (5 mM), TRITON-X100 (1%), pepstatin A (1 μM), PMSF (100 μM) and leupeptin (1 μM), and homogenised by Polytron homogeniser. The homogenate was centrifuged at 25,000×g for 30 minutes at 4° C. and the PDE 4 enzyme was purified by ion exchange chromatography using the FPLC technique according to Schudt C. et al. (Naunyn-Schmidberg's Arch. Pharmacol., 1991, 334, 682). The supernatant was seeded on a UNO Q12 column (Bio-Rad) and the enzyme was eluted by sodium acetate linear gradient from 50 mM to 1M using a flow rate of 4.5 ml/minutes. The fractions containing enzymatic activity were pooled, dialysed against water and concentrated. The PDE 4 enzyme was stored at, −20° C. in the presence of ethylene glycol (30% v/v) until the use.
The enzyme activity was evaluated with a Scintillation Proximity Assay (SPA) kit (Amersham). The enzymatic reaction was performed in a final volume of 100 μl of TRIS/HCl buffer (50 mM, pH 7.5), MgCl2 (8.3 mM), EGTA (1.7 mM), cAMP (1 μM) and [^3H]cAMP (˜100.000 dpm) as tracer. The compounds of the invention, the reference ones or the vehicle were added at different concentrations. As reference compounds 6,7-dimethoxy-4-pyridin-4-yl-methyl)2H-phthalazin-1-one (reference 1) and 6,7-dimethoxy-4-(piperidin-4-yl-methyl)2H-phthalazin-1-one (reference 2) embraced by the general formula of the patent application EP-0 722 936 (in the name of Eisai) were used. The reaction was started by adding 1.5 μg protein and incubated for 40 minutes at 30° C. SPA beads (50 μl) containing 18 mM zinc sulphate were added to stop the reaction and after 20 minutes at room temperature the radioactivity was measured using a scintillation counter.
The IC50 value refers to the nanomolar concentration of the compound required to inhibit cyclic nucleotide hydrolysis by 50%, and it was calculated by non-linear regression analysis.

The structures appear in SMILES notation.

T1 sequence (Q14432 whole entry): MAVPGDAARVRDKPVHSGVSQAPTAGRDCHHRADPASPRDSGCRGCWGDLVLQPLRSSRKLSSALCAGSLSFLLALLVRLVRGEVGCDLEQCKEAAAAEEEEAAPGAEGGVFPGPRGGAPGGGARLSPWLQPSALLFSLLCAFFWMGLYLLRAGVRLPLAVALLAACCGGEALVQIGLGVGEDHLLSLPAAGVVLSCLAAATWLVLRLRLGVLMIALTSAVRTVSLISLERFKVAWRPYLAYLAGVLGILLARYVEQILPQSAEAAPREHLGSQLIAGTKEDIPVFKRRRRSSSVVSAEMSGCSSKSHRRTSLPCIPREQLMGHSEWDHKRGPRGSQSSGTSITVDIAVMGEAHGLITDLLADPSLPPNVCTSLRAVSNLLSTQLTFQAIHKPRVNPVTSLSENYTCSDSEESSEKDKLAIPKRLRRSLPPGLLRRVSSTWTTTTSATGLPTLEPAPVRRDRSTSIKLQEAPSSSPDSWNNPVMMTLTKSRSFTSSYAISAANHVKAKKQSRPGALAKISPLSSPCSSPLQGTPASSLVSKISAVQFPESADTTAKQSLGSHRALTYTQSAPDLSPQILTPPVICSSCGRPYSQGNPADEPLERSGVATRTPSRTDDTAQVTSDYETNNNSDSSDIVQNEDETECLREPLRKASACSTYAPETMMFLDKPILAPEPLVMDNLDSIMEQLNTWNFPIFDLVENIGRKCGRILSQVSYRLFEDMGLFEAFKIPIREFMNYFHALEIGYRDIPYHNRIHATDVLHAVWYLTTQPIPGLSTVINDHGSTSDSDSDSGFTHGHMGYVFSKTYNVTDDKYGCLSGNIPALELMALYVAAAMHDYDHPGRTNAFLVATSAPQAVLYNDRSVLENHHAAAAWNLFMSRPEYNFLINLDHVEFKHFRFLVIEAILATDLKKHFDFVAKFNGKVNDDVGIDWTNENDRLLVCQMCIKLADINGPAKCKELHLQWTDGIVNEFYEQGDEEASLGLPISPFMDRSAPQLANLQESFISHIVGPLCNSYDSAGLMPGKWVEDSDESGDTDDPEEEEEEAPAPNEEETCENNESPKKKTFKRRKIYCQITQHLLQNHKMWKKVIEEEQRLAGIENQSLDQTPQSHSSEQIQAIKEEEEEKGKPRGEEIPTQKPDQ

For the compound `COc1ccc2c(Cc3c(Cl)cncc3Cl)nnc(-c3ccccc3)c2c1` [Compound 5, 1-(3,5-Dichloro-pyridin-4-ylmethyl)-6-methoxy-4-phenyl-phthalazine], the half-maximal inhibitory concentration (IC50) was determined as 46 ± 15 nM in test [1] and 37 ± 6 nM against PDE 4. The figures for the inhibition at 1 µM against PDE 3 and against PDE 5 were 7% and 21%, respectively.
The like results for `COc1ccc2c(c1)CN(C(C)=O)N=C2Cc1c(Cl)cncc1Cl` [Compound 8, 1-[4-(3,5-Dichloro-pyridin-4-ylmethyl)-7-methoxy-1H-phthalazin-2-yl]-ethanone] were, in that order, 48 ± 14 nM, 51 ± 7 nM, 12% and 35%.
`COc1ccc2c(Cc3c(Cl)cncc3Cl)nnc(N3CCCC3)c2c1` [Compound 49, 1-(3,5-Dichloropyridin-4-ylmethyl)-6-methoxy-4-pyrrolidin-1-yl-phthalazine] yielded a half-inhibitory concentration (IC50) in test [1] of 9.1 ± 2.9 nM. Moreover, the inhibition at 1 µM at PDE 3 is -10%; against PDE 5 it was 10%.
For `COc1ccc2c(Cc3c(Cl)cncc3Cl)nnc(N3CCOCC3)c2c1` [Compound 38, 1(3,5-Dichloro-pyridin-4-ylmethyl)-6-methoxy-4-morpholin-4-yl-phthalazine], the IC50 was 62 ± 17 nM in test [1] and 132 ± 30 nM on PDE 4. The inhibition at 1 µM is -2% against PDE 3 and 1% on PDE 5.
Taken in the same sequence, the figures for `COc1ccc2c(Cc3c(Cl)cncc3Cl)nnc(CN3CCOCC3)c2c1` [Compound 56, 1-(3,5-Dichloro-pyridin-4-ylmethyl)-6-methoxy-4-morpholin-4-ylmethyl-phthalazine] were 260 ± 44 nM, 364 ± 67 nM, -9% and 14%.
The like results for `COc1ccc2c(Cc3c(Cl)cncc3Cl)nnc(-n3cncn3)c2c1` [Compound 29, 1-(3,5-Dichloro-pyridin-4-ylmethyl)-6-methoxy-4-[1,2,4]triazol-1-yl-phthalazine] were, in that order, 73 ± 21 nM, 241 ± 73 nM, -4% and 1%.
